Values after ≈ are worked out from the molar mass of the structure shown. Read-outs that look alike come from different tables or passages of the source.
Tests used:
[1] = test system: E. coli HB4 ΔompC/F (CTX-M-14 + OXA-48); test: microbe, parasite or virus in culture; assay type: cell-based, Escherichia coli; details: for decrease of ertapenem MIC with BLI: E. coli HB4 coproducing CTX-M-14 and OXA-48, BLI 4 mg/L
Procedure, shortened: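 Against isogenic E. coli expressing OXA-48, or OXA-48 with CTX-M-14, in TG1 or the low-permeability HB4 background, MICs were measured in triplicate. Inhibitors at 4 mg/L were given with ertapenem or ceftazidime. EUCAST 13.0 criteria were applied.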

[2] = test system: E. coli HB4 ΔompC/F (CTX-M-14); test: microbe, parasite or virus in culture; assay type: cell-based, Escherichia coli
[3] = test system: E. coli TG1 and HB4 transformants; test: MIC summary over E. coli transformants; assay type: cell-based, Escherichia coli; details: for effect of ertapenem/BLI on bacterial growth / decrease of ertapenem MIC with BLI: OXA-48-producing E. coli hosts, BLI 4 mg/L; for MICs of inhibitor alone (range over strains): TG1 and HB4 E. coli
Description: The E. coli HB4 strain was used to gain a more complete perspective, by evaluating the involvement in resistance of a low permeability background with the carbapenemase OXA-48, as well as coproduction of an ESBL and the carbapenemase; thus, the ESBL CTX-M-14 and OXA-48 were cloned together and separately into E. coli HB4. The characteristics of these strains and transformants are summarized in Table S1, and the cloning procedures are outlined in the supplemental methods.
(§1) The MICs of each of the individual compounds (antibiotics or inhibitors) were also determined. The MICs were determined for the E. coli isogenic expressing OXA-48 (and both OXA-48 and CTX-M-14) to assess their activity against the carbapenemase; MICs were also determined for the 18 Enterobacterales clinical isolates in order to evaluate the new inhibitors against also their resistance concomitant mechanisms. The MICs were determined in triplicate experiments, and the EUCAST 13.0 clinical breakpoints were followed (http://www.eucast.org/clinical_breakpoints).
(§2) For comparative evaluation of the activity of each inhibitor alone against the carbapenemase OXA-48, all inhibitors (at 4 mg/L) were tested in the presence of a carbapenem (ertapenem, adequate substrate) and a cephalosporin (ceftazidime, poor substrate) as reporter substrates. This prevented any possible masking effect produced by the different partner antibiotics. These assays were also performed with isogenic transformants and clinical isolates.

[4] = test system: OXA-48-producing Enterobacterales clinical isolates; test: MIC summary over clinical isolates; assay type: cell-based
Protocol: The efficacy of these new BLIs was also evaluated against 18 genetically diverse WGS-characterized collection of OXA-48-positive Enterobacterales recovered as part of the Carbapenem-resistant Enterobacterales Genome Database Project (https://genomes.cnag.cat/incredble) listed in Table S2 ([13]). Combinations of clinical isolates (five pairs of Klebsiella pneumoniae, two pairs of Enterobacter cloacae, and two pairs of E. coli) were chosen for analysis: (i) nine strains carrying ESBLs; and (ii) nine strains (genetically closer available strains) without ESBLs.
as §1, §2

OXA-48 [5] = target: T1, OXA-48 (Klebsiella pneumoniae, UniProt Q6XEC0); test: Steady-state inhibition constant (Ki app), nitrocefin reporter; assay type: biochemical; parameters: These primers amplified the blaOXA-48 gene without the signal peptide; GST (glutathione S-transferase, pGEX-6P-1) (N, cleaved yes); made in house; host or cells: E. coli BL21; details: nitrocefin 300 µM reporter, 25 °C, pH 7.4
Protocol: (§3) OXA-48 was cloned, produced, and purified following the procedures described in the supplemental methods. The steady-state inhibition constants (Ki app) and kinetics of inhibition (such as k2/K , koff, Kd, and tn) were determined following previously established protocols, are also outlined in the supplemental methods.
(§4) Ki app serves as an equilibrium constant, calculable from […] conditions and indicates the formation of the enzyme acyl E-S complex. […] Plotting the inverse initial velocities (1/V0) against inhibitory concentrations ([I]) facilitated fitting the data to a linear equation. The intersection, divided by the slope of the line, was defined as the observed Ki app.
Ki app (corrected)= Ki app (observed) / [ 1+ ([S]/KmNFC)] (2)

OXA-48 [6] = target: T1, OXA-48; test: Inhibition efficiency / onset of acylation (k2/K), nitrocefin reporter; assay type: biochemical; parameters: These primers amplified the blaOXA-48 gene without the signal peptide; GST (glutathione S-transferase, pGEX-6P-1) (N, cleaved yes); made in house; host or cells: E. coli BL21; details: for k2/K: nitrocefin reporter; for kinact/KI: pH 7.4, read-out: k2/K, nitrocefin reporter
Protocol: as §3, §4
k2/K = k2/kobs × [([S]/Km NCF) + 1] (3)

OXA-48 [7] = target: T1, OXA-48; test: Partition ratio / turnover number (tn), I/E for >90% inhibition; assay type: biochemical; parameters: These primers amplified the blaOXA-48 gene without the signal peptide; GST (glutathione S-transferase, pGEX-6P-1) (N, cleaved yes); made in house; host or cells: E. coli BL21; details: 15 min incubation, 500 nM enzyme
Protocol: as §3
The evaluation involved exposure to increasing concentrations of inhibitors plus 500 nM of enzyme, at different molar I/E ratios.

OXA-48 [8] = target: T1, OXA-48; test: Dissociation rate (koff) by jump dilution; t1/2 and Kd; assay type: biochemical; parameters: These primers amplified the blaOXA-48 gene without the signal peptide; GST (glutathione S-transferase, pGEX-6P-1) (N, cleaved yes); made in house; host or cells: E. coli BL21; details: for Kd: koff/kon; for residence time: read-out: t1/2 (residence time)
Protocol: as §3
The dissociation rate constant (koff) was determined using a “jump dilution” method in which OXA-48 enzyme activity was monitored over time as the BLI dissociates. […] Subsequently, the reaction mixture was diluted 10,000-fold dilution in the reaction buffer. […] Absorbance was recorded at 60-s intervals over a 2-h period at RT. The resulting reaction progress curve was fitted to equation 4, which includes the exponential function (6). […] From the fit, GraphPad Prism software, (MA, USA) also calculates the dissociation half-time (t1/2), in min.
koff was obtained directly from the dissociation experiment and kon was previously calculated, thus finally Kd was calculated as the fraction between koff and kon.
P= Vs x t + (V0-Vs) x [1– exp ^(-k^off x ^t)] / koff (4)

OXA-48 [9] = target: T1, OXA-48; parameters: These primers amplified the blaOXA-48 gene without the signal peptide; GST (glutathione S-transferase, pGEX-6P-1) (N, cleaved yes); made in house; host or cells: E. coli BL21; method as in earlier work; details: ref 5 Hecker et al.; cited from earlier work

T1 sequence (Q6XEC0 23-265 limits assumed): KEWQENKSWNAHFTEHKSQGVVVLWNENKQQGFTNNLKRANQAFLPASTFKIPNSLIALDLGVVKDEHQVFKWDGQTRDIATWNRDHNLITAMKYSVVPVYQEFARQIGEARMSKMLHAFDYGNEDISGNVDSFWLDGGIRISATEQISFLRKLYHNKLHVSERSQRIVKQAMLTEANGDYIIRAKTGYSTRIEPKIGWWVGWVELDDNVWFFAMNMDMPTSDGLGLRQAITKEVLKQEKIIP

| SMILES | MIC ([1]; Escherichia coli) [µg/mL] | MIC ([2]; Escherichia coli) [µg/mL] | effect of ertapenem/BLI on bacterial growth [3] | MICs of inhibitor alone (range over strains) [3] [mg/L] | Ki (OXA-48 [5]) [nM] | k2/K (OXA-48 [6]) [M⁻¹ s⁻¹] | kinact/KI (OXA-48 [6]) [M⁻¹ s⁻¹] | tn (partition ratio, I:E) (OXA-48 [7]) | koff (OXA-48 [8]; jump dilution, read-out: koff) [s⁻¹] | Kd (OXA-48 [8]) [nM] | residence time (OXA-48 [8]) [min] | decrease of ertapenem MIC with BLI [1] [fold] | decrease of ertapenem MIC with BLI [3] | further results |
| --- | --- | --- | --- | --- | --- | --- | --- | --- | --- | --- | --- | --- | --- | --- |
| CC(C)(O/N=C(\C(=O)N[C@@H]1C(=O)N2C(C(=O)[O-])=C(C[n+]3ccccc3)CS[C@H]12)c1csc(N)n1)C(=O)O [CAZ, ceftazidime] | 16 (≈ 29.3 µM) | 16 (≈ 29.3 µM) | – | – | – | – | – | – | – | – | – | – | – | MIC ([1]; E. coli HB4 ΔompC/F (CTX-M-14 + OXA-48), ceftazidime alone or with BLI at 4 mg/L): 16 µg/mL; MIC ([2]; E. coli HB4 ΔompC/F (CTX-M-14), ceftazidime alone or with BLI at 4 mg/L): 16 µg/mL (≈ 29.3 µM) |
| CC1=C[C@@H]2CN(C(=O)N2OS(=O)(=O)O)[C@@H]1C(N)=O [Durlobactam, durlobactam] | 1 (≈ 3.61 µM) | 1 (≈ 3.61 µM) | totally inhibited bacterial growth | 0.12 to 2 | 103 ± 24 | 142000 ± 38000 | 140000 | 1 | 9.5e-06 | 0.07 ± 0.01 | 1220 ± 213 | – | – | MIC of inhibitor alone (range over isolates) ([4]; 18 clinical isolates): 0.25 to 4 µg/mL |
| NCCONC(=O)[C@@H]1CC[C@@H]2CN1C(=O)N2OS(=O)(=O)O [Nacubactam, nacubactam] | 2 (≈ 6.17 µM) | 2 (≈ 6.17 µM) | totally inhibited bacterial growth | 0.12 to 2 | > 800000 | – | 4.88 ± 2.11 | 70 | 0.0002 | 41000 | 57.7 ± 7.5 | – | – | decrease of meropenem MIC by BLI ([4]; clinical isolates): 0–32 fold |
| NCCN[C@H]1CC[C@H](CC(=O)N[C@H]2Cc3cccc(C(=O)O)c3OB2O)CC1 [Taniborbactam, taniborbactam] | ≥ 128 | ≥ 128 | – | – | 75 ± 15 | – | – | 200 | 0.00023 | – | 50.2 ± 8.2 | 8 | 8–256 fold | reduction of cefepime MICs by BLI ([4]; clinical isolates): 2–512 fold |
| O=C(O)C[C@@H]1CC[C@H](NC(=O)Cc2cccs2)B(O)O1 [Vaborbactam, vaborbactam] | ≥ 128 | ≥ 128 | – | – | 43600 | – | – | >3,000 | – | – | 44.4 ± 1.6 | – | – | koff (OXA-48 [8]): 2.6 × 10^−4 ± .5 10^−4 s^−1 |
| O=C(O)c1c(F)ccc2c1OB(O)[C@@H]1C[C@H]21 [Xeruborbactam, xeruborbactam] | 16 (≈ 72.1 µM) | 16 (≈ 72.1 µM) | – | – | 18 ± 2 | 310000 | 313000 | 1 | 0.0002 | 0.63 | 57.7 ± 9.6 | 256 | 8–256 fold | higher inhibitory activity (Ki) for OXA-48 than avibactam (OXA-48 [9]): 96 fold; higher inhibitory activity (Ki) for OXA-48 than vaborbactam (OXA-48 [9]): 50,000 fold |
